Source: patent publication US20030203959A1, “Novel modulators of potassium channels” (4SC AG, priority 2002, published 2003)

Biological target: BK channels, cloned hSlo (α-hSlo and β-bSlo) in CHO cells (Homo sapiens, UniProt Q12791)
Test: Em-Assay (voltage sensitive dye DiBAC(4)3 fluorescence, membrane potential)
Assay type: cell-based
Conditions: ratio of the compound effect (50 μM) compared to the maximal effect of NS004 (25 or 50 μM); hSlo transfected CHO cells
Excerpt: The large conductance, voltage dependent and Ca^2+-activated potassium channel BK is a potassium selective ion channel and belongs to the subfamily of KCa channels. Four BK alpha-subunits form a functional channel that can be regulated by intracellular Ca^2+ concentration, membrane voltage, and other mechanisms like phosphorylation states or beta subunits. To test the biological activity of the compounds, we applied two different techniques, a fluorescence based assay using a voltage sensitive dye (Em-Assay) as well as exploiting electrophysiological methods.
CHO cells permanently transfected with cloned hSlo (α-hSlo and β-bSlo), yielding typical BK potassium currents (Zhou et al., Pflügers Arch., 436: 725-734 (1998), were used for the evaluation of compound activity. Activation or inhibition of BK channels in these cells leads to a change of the electrochemical gradient causing a hyperpolarized or depolarised membrane potential, respectively.
To determine changes in the membrane potential of the cells we used the voltage sensitive dye DiBAC(4)3 (Molecular Probes) in a kinetic assay system using a fluorescent plate reader (Manning and Sontheimer, J. Neurosci. Meth., 91: 73-81 (1999). The anionic bis-oxonol DiBAC(4)3 is a voltage sensitive dye which partitions from the extracellular environment into the cell where it reversibly binds to intracellular proteins, a kinetic process depending on the membrane potential of the cell. At depolarised potentials (i.e. at a reduced K^+ efflux due to blocked K^+ channels) the dye accumulates in the cell leading to an increased fluorescence intensity, due to its increased fluorescence if bound to cellular proteins. At hyperpolarized potentials (i.e. at an increased K^+ efflux due to the opening of K^+ channels), the dye partitions out of the cell causing a decreased fluorescence intensity.
hSlo transfected CHO cells where maintained in DMEM supplemented with 10% FCS, 250 μg/ml Geneticin, 100 μg/ml Hygromycin, 1×HT-Supplement, and 1×Non-essential Amino Acids and cultured in a humidified CO2 incubator. After trypsination, cells where plated with a density of 5×10^4 cells per well on a clear 96-well plate and incubated for 24 h. Cells where washed once with PBS, once with PBS containing 20 mM HEPES (adjusted to pH 7.4 with NaOH) and 2 μM DiBAC(4)3 (DPBS-DiMAC solution). 180 μl of the dPBS-DiBAC solution was then added to the cells and the plate incubated for 30-60 min at 37° C. During this time the dye could partition into the cells and reach a certain steady-state distribution, depending on the resting membrane potential. Test and reference compounds were stored as DMSO stock solutions and diluted in dPBS-DiBAC solution to the desired concentration.
Fluorescence intensity (Ex.: 485 nm/Em: 520 nm) of each well was detected in the plate reader (Fluostar, BMG) every 60 seconds. After recording the baseline fluorescence for 7 minutes, 20 μl test and reference compounds were added and the fluorescence intensity was detected for additional 15 minutes. Background was subtracted, data values were normalized and expressed as a change in fluorescence intensity against time. The change in fluorescence intensity caused by the test compounds was evaluated compared to the effect of the reference compound NS004, and the ratio was determined (see Table I).

BK channels, cloned hSlo (α-hSlo and β-bSlo) in CHO cells, sequence (Q12791 whole entry): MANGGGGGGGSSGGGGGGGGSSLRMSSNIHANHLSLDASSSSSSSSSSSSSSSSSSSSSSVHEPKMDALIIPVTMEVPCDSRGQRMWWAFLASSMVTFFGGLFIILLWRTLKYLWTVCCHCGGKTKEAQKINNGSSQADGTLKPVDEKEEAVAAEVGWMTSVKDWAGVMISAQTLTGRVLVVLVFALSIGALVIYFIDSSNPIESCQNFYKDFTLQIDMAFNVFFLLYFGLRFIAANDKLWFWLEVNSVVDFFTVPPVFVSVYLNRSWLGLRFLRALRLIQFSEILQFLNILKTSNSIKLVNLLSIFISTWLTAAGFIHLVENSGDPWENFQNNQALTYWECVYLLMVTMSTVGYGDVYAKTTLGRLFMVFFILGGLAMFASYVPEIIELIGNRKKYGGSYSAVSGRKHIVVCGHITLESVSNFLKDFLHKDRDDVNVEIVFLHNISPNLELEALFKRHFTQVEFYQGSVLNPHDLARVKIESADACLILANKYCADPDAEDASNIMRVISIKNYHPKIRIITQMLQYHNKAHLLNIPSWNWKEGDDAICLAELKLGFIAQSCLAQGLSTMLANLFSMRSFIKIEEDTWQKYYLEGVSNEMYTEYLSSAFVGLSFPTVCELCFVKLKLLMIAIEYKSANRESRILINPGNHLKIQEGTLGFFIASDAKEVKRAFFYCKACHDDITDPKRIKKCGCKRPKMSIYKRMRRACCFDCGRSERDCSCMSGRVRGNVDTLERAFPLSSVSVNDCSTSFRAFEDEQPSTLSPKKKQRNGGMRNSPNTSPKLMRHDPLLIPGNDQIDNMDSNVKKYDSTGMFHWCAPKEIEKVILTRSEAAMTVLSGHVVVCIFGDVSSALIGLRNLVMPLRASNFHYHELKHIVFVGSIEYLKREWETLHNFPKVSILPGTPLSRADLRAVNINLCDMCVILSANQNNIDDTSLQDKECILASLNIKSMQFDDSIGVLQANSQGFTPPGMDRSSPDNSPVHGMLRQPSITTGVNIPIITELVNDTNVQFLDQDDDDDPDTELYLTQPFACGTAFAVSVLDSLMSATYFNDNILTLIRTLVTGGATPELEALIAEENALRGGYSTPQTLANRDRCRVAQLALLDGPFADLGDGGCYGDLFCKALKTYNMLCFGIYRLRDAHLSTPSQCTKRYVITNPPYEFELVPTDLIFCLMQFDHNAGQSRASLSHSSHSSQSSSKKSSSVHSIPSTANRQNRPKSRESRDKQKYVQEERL
BK channels, cloned hSlo (α-hSlo and β-bSlo) in CHO cells, sequence (Q28067 whole entry partner): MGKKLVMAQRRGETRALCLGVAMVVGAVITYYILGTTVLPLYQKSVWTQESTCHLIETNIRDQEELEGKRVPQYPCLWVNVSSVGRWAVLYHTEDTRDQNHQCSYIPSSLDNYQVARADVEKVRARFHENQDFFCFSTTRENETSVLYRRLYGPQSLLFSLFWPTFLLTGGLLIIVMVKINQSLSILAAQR

| Em effect | Compound |
| --- | --- |
| ++ (>1=++) | FC(F)(F)Oc1ccc(-c2ccc3[nH]ccc3c2)cc1 [Compound 1] |
| + (0-1=+) | CN(C)c1ccc(-c2ccc3[nH]ccc3c2)cc1 [Compound 2] |
| ++ (>1=++) | Fc1ccc(-c2ccc3[nH]ccc3c2)c(F)c1 [Compound 3] |
| ++ (>1=++) | FC(F)(F)c1ccc(-c2ccc3[nH]ccc3c2)cc1 [Compound 4] |
| ++ (>1=++) | COc1ccccc1-c1ccc2[nH]ccc2c1 [Compound 5] |
| + (0-1=+) | Clc1ccc(-c2cccc3cc[nH]c23)s1 [Compound 6] |
| + (0-1=+) | COc1ccccc1-c1cccc2cc[nH]c12 [Compound 7] |
| + (0-1=+) | FC(F)(F)c1ccc(-c2cccc3cc[nH]c23)cc1 [Compound 8] |
| + (0-1=+) | Clc1ccccc1-c1cccc2cc[nH]c12 [Compound 9] |
| + (0-1=+) | Fc1ccc(-c2cccc3cc[nH]c23)c(F)c1 [Compound 10] |
| ++ (>1=++) | CN(C)c1ccc(-c2cccc3cc[nH]c23)cc1 [Compound 11] |
| + (0-1=+) | Clc1ccc(-c2ccc3cc[nH]c3c2)s1 [Compound 13] |
| + (0-1=+) | FC(F)(F)c1ccc(-c2ccc3cc[nH]c3c2)cc1 [Compound 14] |
| + (0-1=+) | Clc1ccccc1-c1ccc2cc[nH]c2c1 [Compound 15] |
| + (0-1=+) | Fc1ccc(-c2ccc3cc[nH]c3c2)c(F)c1 [Compound 16] |
| ++ (>1=++) | CN(C)c1ccc(-c2ccc3cc[nH]c3c2)cc1 [Compound 17] |
| + (0-1=+) | COc1ccccc1-c1ccc2cc[nH]c2c1 [Compound 19] |
| + (0-1=+) | FC(F)(F)c1cc(-c2cccc3[nH]ccc23)cc(C(F)(F)F)c1 [Compound 20] |
| + (0-1=+) | Fc1cc(-c2cccc3[nH]ccc23)ccc1-c1ccccc1 [Compound 21] |

| Em effect | Compound |
| --- | --- |
| + (0-1=+) | Clc1ccc(-c2cccc3[nH]ccc23)s1 [Compound 22] |
| + (0-1=+) | c1cc(-c2ccsc2)c2cc[nH]c2c1 [Compound 23] |
| + (0-1=+) | COc1ccccc1-c1cccc2[nH]ccc12 [Compound 24] |
| + (0-1=+) | FC(F)(F)c1ccc(-c2cccc3[nH]ccc23)cc1 [Compound 25] |
| + (0-1=+) | Clc1ccccc1-c1cccc2[nH]ccc12 [Compound 26] |
| + (0-1=+) | FC(F)(F)Oc1ccc(-c2cccc3[nH]ccc23)cc1 [Compound 28] |
| + (0-1=+) | CS(=O)(=O)c1ccc(-c2ccc3[nH]ccc3c2)cc1 [Compound 29] |
| ++ (>1=++) | Clc1ccccc1-c1ccc2[nH]ccc2c1 [Compound 30] |
| + (0-1=+) | O=Cc1ccccc1-c1ccc2[nH]ccc2c1 [Compound 31] |
| + (0-1=+) | CC(C)(C)c1ccc(-c2ccc3[nH]ccc3c2)cc1 [Compound 32] |
| + (0-1=+) | O=[N+]([O-])c1ccccc1-c1ccc2[nH]ccc2c1 [Compound 33] |
| + (0-1=+) | FC(F)(F)Oc1cccc(-c2ccc3[nH]ccc3c2)c1 [Compound 34] |
| + (0-1=+) | COc1ccc(-c2ccc3cc[nH]c3c2)cn1 [Compound 35] |
| + (0-1=+) | c1ccc(COc2ccc(-c3cccc4[nH]ccc34)cc2)cc1 [Compound 36] |
| + (0-1=+) | Fc1cccc(-c2ccc3cc[nH]c3c2)c1 [Compound 37] |
| + (0-1=+) | FC(F)(F)Oc1cccc(-c2cccc3cc[nH]c23)c1 [Compound 38] |
| ++ (>1=++) | CC(C)(C)c1ccc(-c2cccc3[nH]ccc23)cc1 [Compound 39] |
| + (0-1=+) | COc1ccc(-c2cccc3[nH]ccc23)cc1 [Compound 42] |
| + (0-1=+) | c1cc2cc(-c3ccc4[nH]ccc4c3)ccc2[nH]1 [Compound 43] |

| Em effect | Compound |
| --- | --- |
| ++ (>1=++) | c1ccc2c(-c3ccc4[nH]ccc4c3)cccc2c1 [Compound 44] |
| ++ (>1=++) | Clc1ccc(-c2ccc3[nH]ccc3c2)cc1 [Compound 46] |
| + (0-1=+) | c1cc(-c2ccc3[nH]ccc3c2)c2cc[nH]c2c1 [Compound 47] |
| ++ (>1=++) | COc1ccc(-c2ccc3[nH]ccc3c2)c(OC)c1 [Compound 48] |
| + (0-1=+) | CC(=O)c1cccc(-c2ccc3[nH]ccc3c2)c1 [Compound 49] |
| ++ (>1=++) | c1cc2cc(-c3ccc4c(c3)OCO4)ccc2[nH]1 [Compound 50] |
| ++ (>1=++) | COc1c(C)cc(-c2ccc3[nH]ccc3c2)cc1C [Compound 51] |
| + (0-1=+) | c1ccc(-c2ccc3[nH]ccc3c2)nc1 [Compound 52] |
| ++ (>1=++) | c1cc2cc(-c3ccc4cc[nH]c4c3)ccc2[nH]1 [Compound 53] |
| ++ (>1=++) | COc1ccc(-c2ccc3[nH]ccc3c2)cc1 [Compound 54] |
| + (0-1=+) | Fc1ccc(-c2cccc3[nH]ccc23)c(F)c1 [Compound 55] |
| + (0-1=+) | COc1cccc(-c2cccc3[nH]ccc23)c1 [Compound 56] |
| + (0-1=+) | c1ccc(Oc2ccc(-c3cccc4[nH]ccc34)cc2)cc1 [Compound 57] |
| + (0-1=+) | Clc1ccc(-c2ccc3cc[nH]c3c2)cc1 [Compound 58] |
| + (0-1=+) | c1ccc(-c2ccc3[nH]ccc3c2)cc1 [Compound 59] |
| + (0-1=+) | c1ccc(-c2cccc(-c3ccc4cc[nH]c4c3)c2)cc1 [Compound 60] |
| + (0-1=+) | FC(F)(F)c1cc(-c2ccc3cc[nH]c3c2)cc(C(F)(F)F)c1 [Compound 61] |
| + (0-1=+) | CC(C)(C)c1ccc(-c2ccc3cc[nH]c3c2)cc1 [Compound 62] |

Biological target: BK currents, cloned α-hSlo and β-bSlo in CHO cells (Homo sapiens, UniProt Q12791)
Test: Electrophysiological studies (whole-cell patch-clamp, BK currents)
Assay type: cell-based
Conditions: ratio of current increase after application of compound (20 μM) relative to control current before application, steady-state
Description: CHO cells permanently transfected with cloned α-hSlo and β-bSlo were maintained as described above and used for electrophysiologial characterisation. The whole-cell configuration of the patch-clamp technique was used to determine the effect of modulators on BK currents in these cells. The cell line expressing functional BK currents (Zhou et al., Pflügers Arch 436, p.725 (1998)) were plated onto glass cover slips with a density of 1-5×10^4 cells/cover slip, incubated (37° C., 5% CO2) and used for patch-clamp experiments within 24-48 h. Cells were bathed in mammalian ringer solutions containing (in mM): 160 NaCl, 4.5 KCl, 2CaCl2, 1 MgCl2, 10 HEPES, adjusted to pH 7.4, 290-310 mOsim. The internal pipette solution contained (in mM): 160 KCl, 2CaCl2, 1 MgCl2, 10 HEPES, EGTA was added to reach a free [Ca^2+]internal=1×10 ^−6M, adjusted to pH 7.2, 290-310 mOsm.
Borosilicate pipettes with a resistance of 2-3 MΩ were filled with the internal solution and mounted on an appropriate holder. Prior to measurements a recording chamber was mounted onto the cell-plated cover slips and the cells were perfused with a simple syringe driven perfusion system. Compounds were added in the final concentration ([…]) to the bath solution using the same system. An EPC-9 patch-clamp amplifier with Pulse and PulseFit software (HEKA) was used to record and analyze currents.
After addition of the compounds to the bath solution their modulating effect was determined by the increase or decrease of specific BK currents after reaching steady-state relative to the BK current before application of drugs (see Table II).

BK currents, cloned α-hSlo and β-bSlo in CHO cells, sequence (Q12791 whole entry): as the sequence (Q12791 whole entry) above
BK currents, cloned α-hSlo and β-bSlo in CHO cells, sequence (Q28067 whole entry partner): as the sequence (Q28067 whole entry partner) above

| Effect (ratio of current increase) | Compound |
| --- | --- |
| ++ (>1,1-1.2=++) | FC(F)(F)Oc1ccc(-c2ccc3[nH]ccc3c2)cc1 [Compound 1] |
| + (1-1.1=+) | CN(C)c1ccc(-c2ccc3[nH]ccc3c2)cc1 [Compound 2] |
| +++ (>1.2=+++) | Fc1ccc(-c2ccc3[nH]ccc3c2)c(F)c1 [Compound 3] |
| ++ (>1,1-1.2=++) | FC(F)(F)c1ccc(-c2ccc3[nH]ccc3c2)cc1 [Compound 4] |
| ++ (>1,1-1.2=++) | COc1ccccc1-c1ccc2[nH]ccc2c1 [Compound 5] |
| ++ (>1,1-1.2=++) | Clc1ccc(-c2cccc3[nH]ccc23)s1 [Compound 22] |
| + (1-1.1=+) | Clc1ccccc1-c1ccc2[nH]ccc2c1 [Compound 30] |
